Experimental data as given in US20060234986A1, “Use of TAFI inhibitors for enhanced myocardial reperfusion and facilitated PCI” (Schering Aktiengesellschaft, priority 2005, published 2006).

Assays:
[1] = system: LPS-induced impairment of fibrinolysis (lung fibrin deposition); test: Rat lung fibrin deposition model (batroxobin, 125I-fibrinogen, LPS); assay type: in vivo
Procedure: This model was used to test the hypothesis that inhibition of endogenous TAFI can enhance fibrinolysis. Batroxobin, a thrombin-like enzyme, was used to hydrolyze fibrinogen to fibrin, which deposits in tissues, especially in the lungs. Following tissue deposition, fibrin is lysed into fibrin degradation products, which return to the blood. In this study, ^125I-labeled fibrinogen was given and tissue accumulation of fibrin and the subsequent fibrinolysis were assessed by the mobilization of ^125I from blood to tissue (generation of ^125I-fibrin from ^125I-fibrinogen) and back to blood (generation of ^125I-fibrin degradation products from ^125I-fibrin) after batroxobin injection. LPS has been known to stinulate the release of numerous endogenous factors that can inhibit fibrinolytic activity, including TAFI, thus preventing spontaneous fibrinolysis in the lungs.
Male Sprague-Dawley rates (300-350g) were randomly divided into three groups: • (1) untreated (controls) • (2) treated with LPS • (3) treated with LPS+TAFI inhibitor. Animals assigned to receive LPS (0.5 mg/kg, iv) were injected 3 hours before batroxobin injection. Twenty minutes before batroxobin injection, all animals were anesthetized with pentobarbital (65 mg/kg, ip), and saline-filled catheters were placed into the right carotid artery and left jugular vein for blood collection and drug injection, respectively. ^125I-fibrinogen (1 mCi) was administered to all animals 10 min. prior to batroxobin injection and animals assigned to receive the TAFI inhibitor (10 mg/kg) were injected 5 min. before the batroxobin. The rats were sacrificed at either 5 or 30 min after batroxobin injection.

[2] = system: rabbit jugular vein thrombus; test: Rabbit jugular vein thrombosis model, thrombus weight; assay type: in vivo; conditions: for Thrombus weight (wet): 90 min
Procedure: Thrombosis was initiated ex vivo and introduced into the jugular vein. Treatment compound(s) were administered to the animals after thrombus formation and introduction. Fibrinolysis was assessed by measuring clot weight at the end of the study. […] The threshold dose of tPA was combined with either a TAFI inhibitor of the invention, (2S)-2-(3-(amino)methylphenyl)-3-(((1R)-1-(3-phenylpropylsulfonyl)amino-2-methylpropyl)(hydroxy)phosphinoyl)propanoic acid trifluoroacetate, or the peptidic TAFI inhibitor CPI, which was used as a positive control to confirm the effect of TAFI inhibition in this model.
Male New Zealand white rabbits (2.35-3.14 kg) were anesthetized using isoflurane. A segment of the jugular vein was isolated with ligatures and injected with a mixture of autologous citrated blood and thromboplastin to induce thrombus formation. The thrombus formed in the isolated venous segment was allowed to mature for 30 minutes prior to releasing the ligatures and initiating thrombolytic treatment.
Rabbits were divided into the following treatment groups (10-12 animals per group): • (1) vehicle; phosphate buffered saline (PBS) • (2) threshold fibrinoloytic dose tPA (10 μg/kg+67 μg/kg/hr) • (3) CPI (500 μg/kg+300 μg/kg/hr)+tPA low (10 μg/kg+67μg/kg/hr) • (4) low TAFI inhibitor (0.3 mg/kg+0.14 mg/kg/hr)+tPA low (10 μg/kg+67 μg/kg/hr) • (5) high TAFI inhibitor (3 mg/kg+1.4 mg/kg/hr)+tPA low ([…]+67 μg/kg/hr) • (6) maximally effective dose tPA (30 μg/kg+200 μg/kg/hr)
Blood samples were collected from the left jugular vein for measurement of TAFI inhibitor plasma drug levels prior to releasing the ligatures (time=0), and at 1, 10, 30, 60, and 90 minutes after starting thrombolytic treatment. CPI, TAFI inhibitor, tPA or vehicle were administered as bolus injections, followed by a constant infusion for 90 minutes via the right marginal ear vein. At the end of 90 minutes, the rabbits were euthanized and the thrombus was removed for determination of wet and dry weights. The relative effects of all treatment groups were the same, regardless of whether wet or dry weights were utilized for analysis, so only wet weights are used in the subsequent discussion. The assessment of bleeding risk was evaluated by measuring the weight of blood loss from toe nail clips performed prior to thrombolytic treatment, and at the end of the study. Re-bleeding from the previous site following initial hemostasis was also recorded.
Data were analyzed using ANOVA followed by the LSD test for a comparison of differences in thrombus weight in the various treatment groups. In the vehicle-treated animals (group 1) thrombus weights averaged 98±9 mg. […] When either CPI (group 3) or TAFI inhibitor (group 4 or 5) was given together with the low dose of tPA, the threshold effect of tPA was enhanced, and a significant reduction in thrombus weights was observed when compared to the vehicle-treated group. This enhancement of fibrinolytic activity of tPA for the CPI group (68±10 mg) and the low dose TAFI inhibitor group (63±10 mg) was similar to results obtained with the high dose TAFI inhibitor group (56±13 mg). In animals treated with the higher dose of tPA (group 6), a significant reduction in thrombus weight (41±7 mg) was observed compared to both the vehicle and low dose tPA groups.

[3] = system: α2-antiplasmin; test: Ex vivo α2-antiplasmin activity (colorimetric assay) in dog plasma
Procedure: Plasma drug concentration was measured using LC/MS/MS techniques. Ex vivo α2-antiplasmin, an indicator of systemic plasmin activation, was measured by colorimetric assay. Exogenously activated TAFI (10 nM) was added into the blank plasma and TAFI activity measured by colorimetric assays was defined as 100%. Plasma from TAFI inhibitor-administered dogs were treated in the same way, and results were expressed as the percent inhibition of the spiked TAFI activity.

[4] = system: rat femoral artery occlusive thrombus; test: Rat femoral artery thrombosis model (rose Bengal + light irradiation), incidence of reperfusion; assay type: in vivo
From the text: A stable, occlusive thrombus was formed by giving rose Bengal intravenously followed by light irradiation. Free radicals generated at the site of irradiation result in endothelial damage that causes an occlusive thrombus. Thrombotic occlusion and effective fibrinolysis (reperfusion) were monitored by measuring blood flow with a Doppler flow probe. Since no spontaneous reperfusion is observed in this model, a threshold dose of tPA was used to mimic the endogenous fibrinolytic activity observed in patients with STEMI undergoing PCI (16-25% spontaneous reperfusion rate). […] Based on the results of phanmacokinetic studies and in vitro clot lysis assays, two doses (3 and 10 mg/kg) of a TAFI inhibitor of the invention, (2S)-2-(3-(amino)methylphenyl)-3-(((1R)-1-(3-phenylpropylsulfonyl)amino-2-methylpropyl)(hydroxy)phosphinoyl)propanoic acid trifluoroacetate, were used.
Male Wistar rats (241-270 g) were anesthetized with sodium pentobarbital. A section of the right femoral artery was isolated carefully, and a pulse Doppler flow probe was placed for monitoring blood flow. The left carotid artery, both jugular veins, and left femoral vein were cannulated with polyethylene tubes for monitoring blood pressure and heart rate, for injection of tPA, rose Bengal and TAFI inhibitor, respectively. Blood flow, blood pressure and heart rate were continuously recorded on a thermal recorder during the experiment. An occlusive thrombus was induced in the right femoral artery by bolus injection of rose Bengal followed by light exposure. Occlusive thrombus was observed approximately 6 min after the injection of rose Bengal and start of irradiation.
Rats were assigned to four groups for the tPA dose response as follows: • (1) Vehicle (saline; n=8) • (2) tPA (72 μg/kg/min=2.5 million I.U./kg/hr; n=8) • (3) tPA (115 μg/kg/min=4 million I.U./kg/hr; n=10) • (4) tPA (230 μg/kg/min=8 million I.U./kg/hr; n=8)
tPA or vehicle was infused via the right jugular vein beginning 10 min after the formation of occlusive thrombus and the infusion was continued for 60 min.
Rats were assigned to three groups for the TAFI inhibitor efficacy study as follows: • (1) tPA threshold (72 μg/kg/min, n=16) • (2) low TAFI inhibitor (3 mg/kg+0.03 mg/kg/min) and tPA threshold (72 μg/kg/min) (n=8) • (3) high TAFI inhibitor (10 mg/kg+0.10 mg/kg/min) and tPA threshold (72 μg/kg/min) (n=8)
Administration of TAFI inhibitor or vehicle via the left femoral vein was started simultaneously with tPA via the right jugular vein beginning 10 min after the formation of occlusive thrombus, both given as a bolus over 1 min and infusion for 59 min. […] The incidence of reperfusion was used as the index of drug efficacy.

[5] = system: dog femoral artery occlusive thrombus; test: Dog femoral artery thrombosis model (FeCl2 injury), reperfusion and time to occlusion; assay type: in vivo; conditions: TAFI inhibitor pre-treatment (10 min before FeCl2), n=6, p=ns vs control group
From the text: (§1) A dog femoral artery thrombosis model was used to test that TAFI inhibition by i.v. administration of a potent and selective TAFI inhibitor would potentiate fibrinolysis. A stable, occlusive thrombus was formed using FeCl2 to chemically injure the arterial wall. Thrombotic occlusion and reperfusion (effective fibrinolysis) were monitored by measuring blood flow with a Doppler flow probe. Since no spontaneous reperfusion is observed in this model, a sub-maximal dose of tPA was used to enhance baseline activity. […] Bleeding propensity was measured by determining the time required for bleeding to stop following a series of standardized wounds (sectioning of the cuticle).
(§2) Male Beagle dogs (8-12 kg) were anesthetized with isoflurane (2-3%). […] Femoral artery blood flow, systemic blood pressure, heart rate and breathing patterns were monitored and recorded on a data acquisition system during the experiment. […] The time for the cut to cease bleeding was recorded as the primary bleeding time.
(§3) After stabilization of hemodynamic parameters, a blood sample was taken for drug levels. […] Bleeding time was determined and a blood sample was collected 20 min after the start of the tPA infusion. […]

[6] = system: bleeding time after sectioning of the cuticle; test: Dog cuticle bleeding time; assay type: in vivo
From the text: as §1, §2, §3

CC(C)[C@H](NS(=O)(=O)CCCc1ccccc1)P(=O)(O)C[C@H](C(=O)O)c1cccc(CN)c1.O=C(O)C(F)(F)F [TAFI inhibitor, (2S)-2-(3-(amino)methylphenyl)-3-(((1R)-1-(3-phenylpropylsulfonyl)amino-2-methylpropyl)(hydroxy)phosphinoyl)propanoic acid trifluoroacetate]
CPM in the lungs versus control rats ([1]; LPS + TAFI inhibitor 10 mg/kg, 30 min after batroxobin): not different
Blood CPM and 125I in the lungs ([1]; LPS + TAFI inhibitor 10 mg/kg, 30 min after batroxobin, versus LPS-treated rats): prevented LPS-induced recovery of blood CPM and resulted in ^125I retention in the lungs
Radioactive readings in blood or lungs ([1]; TAFI inhibitor 10 mg/kg in LPS-treated rats, 5 min after batroxobin, in relation to LPS-treated rats): did not change
% Reduction Thrombus Weight ([2]; 0.3 mg/kg TAFI inhibitor + tPA post-thrombus formation, p = ns): 36% p = ns
% Reduction Thrombus Weight ([2]; 3 mg/kg TAFI inhibitor + tPA post-thrombus formation, p = ns): 43% p = ns
Thrombus weight (wet) ([2]; high TAFI inhibitor 3 mg/kg + 1.4 mg/kg/hr + tPA low (10 pg/kg + 67 μg/kg/hr)): 56 ± 13 mg
Thrombus weight (wet) ([2]; low TAFI inhibitor 0.3 mg/kg + 0.14 mg/kg/hr + tPA low (10 μg/kg + 67 μg/kg/hr)): 63 ± 10 mg
Inhibition of α2-antiplasmin activity induced by tPA infusion ([3]; TAFI inhibitor administered pre- or post-thrombus formation + tPA): did not change
Incidence of reperfusion ([4]; 3 mg/kg TAFI inhibitor + tPA (72 μg/kg/min) post-thrombus formation, p = ns): 25% (2/8) p = ns
Incidence of reperfusion ([4]; 10 mg/kg TAFI inhibitor + tPA (72 μg/kg/min) post-thrombus formation, p < 0.03): 63% (5/8) p < 0.03
Incidence of reperfusion ([4]; high TAFI inhibitor dose 10 mg/kg + 0.10 mg/kg/min i.v. + tPA threshold 72 μg/kg/min, post-thrombus, reperfused/total rats): 5/8
Incidence of reperfusion ([4]; low TAFI inhibitor dose 3 mg/kg + 0.03 mg/kg/min i.v. + tPA threshold 72 μg/kg/min, post-thrombus, reperfused/total rats): 2/8
Time to occlusion induced by FeCl2 [5]: 31.1 ± 3.9 min
Bleeding time ([6]; TAFI inhibitor 10 mg/kg pre-thrombus + tPA 10 μg/kg/min, versus tPA alone): without further prolongation of bleeding time

tPA: tissue-type plasminogen activator, a plasminogen activator used as thrombolytic agent
Thrombus weight (wet) ([2]; higher (maximally effective) dose tPA 30 μg/kg + 200 μg/kg/hr alone): 41 ± 7 mg
Thrombus weight (wet) ([2]; low (threshold) dose tPA 10 μg/kg + 67 μg/kg/hr alone, not significant vs vehicle): 80 ± 11 mg
% Reduction Thrombus Weight ([2]; threshold dose tPA (10 μg/kg + 1 μg/kg/min) alone): 18%
Activity of α2-antiplasmin (indicator of systemic plasmin activation) ([3]; tPA infusion, dose dependence): dose-dependently reduced
Incidence of reperfusion ([4]; TAFI inhibitor efficacy study, tPA threshold dose 72 μg/kg/min alone, reperfused/total rats): 2/16
Incidence of reperfusion ([4]; tPA dose response study, tPA 72 μg/kg/min infused 60 min, starting 10 min after occlusive thrombus, reperfused/total rats): 1/8
Incidence of reperfusion ([4]; tPA dose response study, tPA 115 μg/kg/min infused 60 min, reperfused/total rats): 5/10
Incidence of reperfusion ([4]; tPA dose response study, tPA 230 μg/kg/min infused 60 min, reperfused/total rats): 6/8
Bleeding time ([6]; dog, in vivo): prolonged dose-dependently
